From ChEMBL document CHEMBL1201862, “PubChem BioAssay data set” (2004)
Activity calls are given as the source filed them. Cut-off read from the data, not from the text of the source, for most assays here: actives have a measured IC50 and inactives only a lower limit.

Columns and labels:
[1] = molecular target: T1, Tyrosine-protein phosphatase non-receptor type 7 (Homo sapiens, UniProt P35236); assay: inhibition of hematopoietic tyrosine phosphatase HePTP – biochemical, set 2, SAR follow-up (AID 449736); type: functional
T1 sequence (P35236 whole entry): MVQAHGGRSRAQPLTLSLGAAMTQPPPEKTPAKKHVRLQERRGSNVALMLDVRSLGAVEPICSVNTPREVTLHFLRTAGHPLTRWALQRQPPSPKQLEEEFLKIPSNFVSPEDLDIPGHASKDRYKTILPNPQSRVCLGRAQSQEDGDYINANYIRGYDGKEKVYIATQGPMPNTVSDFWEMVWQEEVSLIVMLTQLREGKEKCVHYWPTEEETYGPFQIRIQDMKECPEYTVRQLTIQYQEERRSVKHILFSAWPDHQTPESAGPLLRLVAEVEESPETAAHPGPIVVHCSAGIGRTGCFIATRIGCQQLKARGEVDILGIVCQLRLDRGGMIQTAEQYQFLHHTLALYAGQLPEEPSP

Hexokinase-1 = molecular target: T2, Hexokinase-1 (Homo sapiens, UniProt P19367); assay: HK1 enzyme activation by HKDC1 hits – biochemical, selectivity assay for HKDC1 activator project, dose response (AID 504762); type: functional
T2 sequence (P19367 whole entry): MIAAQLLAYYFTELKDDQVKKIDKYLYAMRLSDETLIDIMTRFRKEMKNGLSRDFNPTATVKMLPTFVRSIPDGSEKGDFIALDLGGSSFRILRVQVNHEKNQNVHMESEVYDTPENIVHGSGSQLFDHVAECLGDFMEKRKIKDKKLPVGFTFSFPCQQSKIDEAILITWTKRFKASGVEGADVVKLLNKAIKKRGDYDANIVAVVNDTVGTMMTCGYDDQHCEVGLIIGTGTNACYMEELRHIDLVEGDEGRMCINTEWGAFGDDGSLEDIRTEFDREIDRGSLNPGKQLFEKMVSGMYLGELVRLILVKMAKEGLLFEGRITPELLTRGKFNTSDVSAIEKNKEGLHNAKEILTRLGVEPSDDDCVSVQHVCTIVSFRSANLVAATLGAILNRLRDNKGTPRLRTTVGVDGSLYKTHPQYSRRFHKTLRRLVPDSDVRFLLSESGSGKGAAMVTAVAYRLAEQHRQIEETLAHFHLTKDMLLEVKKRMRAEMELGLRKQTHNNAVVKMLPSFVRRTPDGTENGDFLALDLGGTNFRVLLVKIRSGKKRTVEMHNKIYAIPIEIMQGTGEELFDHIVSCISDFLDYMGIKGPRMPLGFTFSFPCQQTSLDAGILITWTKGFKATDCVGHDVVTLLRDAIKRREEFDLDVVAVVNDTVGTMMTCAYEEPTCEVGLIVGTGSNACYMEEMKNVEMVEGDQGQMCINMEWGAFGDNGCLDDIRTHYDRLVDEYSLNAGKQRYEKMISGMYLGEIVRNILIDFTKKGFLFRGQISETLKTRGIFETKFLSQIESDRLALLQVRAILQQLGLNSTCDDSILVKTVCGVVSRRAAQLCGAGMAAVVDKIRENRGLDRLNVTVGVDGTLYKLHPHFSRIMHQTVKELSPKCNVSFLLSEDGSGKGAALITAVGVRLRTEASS

Hexokinase HKDC1 = molecular target: T3, Hexokinase HKDC1 (Homo sapiens, UniProt Q2TB90); assay: activation of HKDC1 glucose phosphorylation – biochemical, W721R variant, dose response (AID 504730); type: functional
T3 sequence (Q2TB90 whole entry): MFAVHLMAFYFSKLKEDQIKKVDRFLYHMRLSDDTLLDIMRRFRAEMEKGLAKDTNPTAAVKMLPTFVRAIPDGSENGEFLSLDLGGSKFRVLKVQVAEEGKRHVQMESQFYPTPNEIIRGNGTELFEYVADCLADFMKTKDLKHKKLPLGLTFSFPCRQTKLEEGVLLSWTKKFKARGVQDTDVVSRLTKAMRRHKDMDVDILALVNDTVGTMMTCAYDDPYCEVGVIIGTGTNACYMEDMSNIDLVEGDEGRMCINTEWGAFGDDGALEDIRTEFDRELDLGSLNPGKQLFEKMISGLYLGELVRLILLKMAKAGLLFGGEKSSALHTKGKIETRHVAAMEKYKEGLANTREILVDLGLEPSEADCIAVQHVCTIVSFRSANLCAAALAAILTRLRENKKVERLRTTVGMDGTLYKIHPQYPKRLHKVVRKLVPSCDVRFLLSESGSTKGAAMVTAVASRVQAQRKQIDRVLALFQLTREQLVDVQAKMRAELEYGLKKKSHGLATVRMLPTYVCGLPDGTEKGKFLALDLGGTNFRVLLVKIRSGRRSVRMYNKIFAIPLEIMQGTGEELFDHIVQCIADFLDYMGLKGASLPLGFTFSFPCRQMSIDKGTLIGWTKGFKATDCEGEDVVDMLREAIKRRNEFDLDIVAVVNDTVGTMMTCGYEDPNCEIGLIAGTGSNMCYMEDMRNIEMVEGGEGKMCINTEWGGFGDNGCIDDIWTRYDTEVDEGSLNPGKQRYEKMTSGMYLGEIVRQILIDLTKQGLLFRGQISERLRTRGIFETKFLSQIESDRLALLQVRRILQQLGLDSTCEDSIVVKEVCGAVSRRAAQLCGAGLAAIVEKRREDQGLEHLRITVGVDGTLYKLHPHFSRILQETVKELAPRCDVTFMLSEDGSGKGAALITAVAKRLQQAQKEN

HEK293 [2] = assay: cells; type: functional, cell-based; conditions: Homo sapiens
Tumor necrosis factor [3] = molecular target: T4, Tumor necrosis factor (Homo sapiens, UniProt P01375); assay: analog potency on TNFa NF-kB signaling – cell-based, set 3, SAR follow-up (AID 2801); type: functional
T4 sequence (P01375 whole entry): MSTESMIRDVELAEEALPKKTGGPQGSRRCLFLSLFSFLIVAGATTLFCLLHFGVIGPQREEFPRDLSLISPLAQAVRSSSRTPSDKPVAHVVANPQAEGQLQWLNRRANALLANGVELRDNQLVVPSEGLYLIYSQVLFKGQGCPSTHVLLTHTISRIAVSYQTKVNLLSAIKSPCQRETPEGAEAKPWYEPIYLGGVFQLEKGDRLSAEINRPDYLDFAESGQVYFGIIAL

HEK293 [4] = assay: NOD2 signaling inhibitors in MDP-stimulated cells, cell-based, uHTS, luminescence (AID 2001); type: functional; conditions: Homo sapiens
HEK293 [5] = assay: cells; type: functional, cell-based; conditions: Homo sapiens; remark: listed apart in the source
HEK293 [6] = assay: SAR analysis of compounds that are cytotoxic to HEK293 - Set 2. [Related pubchem assays (depositor defined):AID1575, AID1578, AID1849, AID2001, AID2333, AID2334, AID2335, AID2337, AID2800]; type: functional, cell-based; conditions: Homo sapiens
HEK293 [7] = assay: cells; conditions: Homo sapiens
[8] = molecular target: T5, Nucleotide-binding oligomerization domain-containing protein 2 (Homo sapiens, UniProt Q9HC29); assay: inhibition of MDP-driven NOD2 NF-kB reporter – cell-based, set 3, SAR follow-up (AID 2799); type: functional
T5 sequence (Q9HC29 whole entry, the tested form may be a part): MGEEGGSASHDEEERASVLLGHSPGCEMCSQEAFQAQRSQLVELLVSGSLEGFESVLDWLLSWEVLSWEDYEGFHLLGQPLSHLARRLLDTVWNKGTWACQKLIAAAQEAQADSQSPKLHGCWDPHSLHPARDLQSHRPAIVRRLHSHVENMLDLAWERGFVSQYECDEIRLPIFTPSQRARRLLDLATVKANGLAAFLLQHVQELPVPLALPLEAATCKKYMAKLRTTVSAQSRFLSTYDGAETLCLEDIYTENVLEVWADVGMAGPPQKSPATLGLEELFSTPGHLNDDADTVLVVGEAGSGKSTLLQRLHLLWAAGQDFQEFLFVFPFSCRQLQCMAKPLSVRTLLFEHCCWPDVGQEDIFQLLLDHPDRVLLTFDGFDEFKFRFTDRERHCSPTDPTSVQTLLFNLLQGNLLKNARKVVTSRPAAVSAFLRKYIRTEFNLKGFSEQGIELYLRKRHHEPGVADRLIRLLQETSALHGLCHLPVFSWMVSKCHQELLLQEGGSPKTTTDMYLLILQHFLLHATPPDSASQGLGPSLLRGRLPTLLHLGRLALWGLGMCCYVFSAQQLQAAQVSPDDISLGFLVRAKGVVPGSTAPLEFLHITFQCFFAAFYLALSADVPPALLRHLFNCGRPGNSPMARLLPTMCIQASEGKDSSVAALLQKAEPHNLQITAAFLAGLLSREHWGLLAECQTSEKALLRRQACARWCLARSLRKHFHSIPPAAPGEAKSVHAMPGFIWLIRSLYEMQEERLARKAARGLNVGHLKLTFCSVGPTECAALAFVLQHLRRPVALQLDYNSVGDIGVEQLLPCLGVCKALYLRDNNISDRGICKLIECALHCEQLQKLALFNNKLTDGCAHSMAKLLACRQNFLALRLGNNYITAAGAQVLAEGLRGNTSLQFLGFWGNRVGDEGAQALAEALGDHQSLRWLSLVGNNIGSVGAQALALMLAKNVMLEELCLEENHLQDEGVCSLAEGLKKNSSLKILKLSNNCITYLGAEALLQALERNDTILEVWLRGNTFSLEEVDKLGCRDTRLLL

HEK293 [9] = assay: SAR analysis of compounds that are cytotoxic to HEK293 - Set 3. [Related pubchem assays (depositor defined):AID1575, AID1578, AID1848, AID1849, AID2001, AID2333, AID2334, AID2335, AID2337, AID2469]; type: functional, cell-based; conditions: Homo sapiens
[10] = molecular target: T5, Nucleotide-binding oligomerization domain-containing protein 2; assay: inhibition of NOD2 signaling – set 2, SAR follow-up (AID 2475); type: functional
[11] = molecular target: T5, Nucleotide-binding oligomerization domain-containing protein 2; assay: PubChem AID 2334; type: functional
Tumor necrosis factor [12] = molecular target: T4, Tumor necrosis factor; assay: analog potency on TNFa NF-kB signaling – cell-based, revised, SAR follow-up (AID 2337); type: functional

## Cc1ccc(NC(=O)Nc2ccc(S(N)(=O)=O)cc2)cc1
[1]
  IC50: 47.6 µM (active)

## Nc1nc(-c2cccc(Br)c2)cs1
Hexokinase-1
  EC50: 49.3 µM (inactive)
Hexokinase HKDC1
  EC50: 31.8 µM (inactive)

## Cc1ccc(S(=O)(=O)n2c(N)nc3ccccc32)cc1
HEK293 [2]
  IC50: > 20 µM (inactive)
Tumor necrosis factor [3]
  IC50: > 20 µM (inactive)
HEK293 [4]
  IC50: > 20 µM (inactive)
HEK293 [5]
  IC50: > 20 µM (inactive)
HEK293 [6]
  IC50: > 20 µM (inactive)
HEK293 [7]
  IC50: > 20 µM (inactive)
[8]
  IC50: > 20 µM (inactive)
HEK293 [9]
  IC50: > 20 µM (inactive)
[10]
  IC50: > 20 µM (inactive)
[11]
  IC50: > 20 µM (inactive)
Tumor necrosis factor [12]
  IC50: > 20 µM (inactive)
